{
  "source": "paper PMC4656030",
  "about": "(Journal of pharmacokinetics and pharmacodynamics, 2015)",
  "key": {"[1]": {"biological_target": "T1, porcine kidney diamine oxidase (Sus scrofa, UniProt Q9TRC7)", "T1 sequence (Q9TRC7 25-755)": "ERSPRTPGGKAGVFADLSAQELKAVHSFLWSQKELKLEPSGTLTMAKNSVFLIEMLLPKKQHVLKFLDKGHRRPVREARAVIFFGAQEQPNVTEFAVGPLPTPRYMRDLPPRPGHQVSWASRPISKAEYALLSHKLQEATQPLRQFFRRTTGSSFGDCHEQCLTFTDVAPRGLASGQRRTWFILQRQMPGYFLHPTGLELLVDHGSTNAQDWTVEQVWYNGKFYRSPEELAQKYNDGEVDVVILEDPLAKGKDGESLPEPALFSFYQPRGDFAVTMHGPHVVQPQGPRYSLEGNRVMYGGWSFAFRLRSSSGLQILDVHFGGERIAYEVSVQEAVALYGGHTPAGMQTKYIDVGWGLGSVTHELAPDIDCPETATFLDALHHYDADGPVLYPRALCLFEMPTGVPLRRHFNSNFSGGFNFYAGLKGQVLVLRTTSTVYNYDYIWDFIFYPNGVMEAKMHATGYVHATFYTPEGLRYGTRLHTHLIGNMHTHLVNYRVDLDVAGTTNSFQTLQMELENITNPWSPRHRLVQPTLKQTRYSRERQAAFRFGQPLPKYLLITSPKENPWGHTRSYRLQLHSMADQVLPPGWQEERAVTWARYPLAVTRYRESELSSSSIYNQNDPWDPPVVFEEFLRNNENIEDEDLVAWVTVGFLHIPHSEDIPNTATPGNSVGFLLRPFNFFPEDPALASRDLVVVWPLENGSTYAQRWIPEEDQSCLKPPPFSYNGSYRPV", "experiment": "Diamine oxidase spectrophotometric assay with putrescine as substrate", "type": "biochemical"}, "[2]": {"settings": "after a therapeutic dose; cited from earlier work"}, "diamine oxidase": {"biological_target": "diamine oxidase", "settings": "read-out: Ki for diamine oxidase; cited from earlier work"}, "porcine diamine oxidase": {"test_system": "porcine diamine oxidase", "settings": "read-out: reported KM of putrescine; cited from earlier work"}, "[3]": {"substrate": "NCCCCN", "experiment": "purified protein, by the assay type", "settings": "other: porcine DAO; pH 7.0; 37.0 °C"}},
  "data": [
    {"molecule": "N=C(N)NN", "note": "[aminoguanidine]", "values": [
      {"measurement": "% inhibition of porcine DAO", "setting": "[1]; inhibitor 100 μM, putrescine 100 μM as substrate", "value": "greater than 80%"}
    ]},
    {"molecule": "CN(C)C(=N)N=C(N)N", "note": "[metformin, Metformin]", "values": [
      {"measurement": "predicted concentration in the intestinal lumen", "setting": "[2]", "value": "10 to 20", "unit": "mM"},
      {"measurement": "Ki", "setting": "[1]", "value": "8.6 ± 3.1", "unit": "mM"},
      {"measurement": "type of DAO inhibition", "setting": "[1]; porcine DAO", "value": "mixed-type inhibition"}
    ]},
    {"molecule": "[H]/N=C(/N)N/C(=N/[H])NCCc1ccccc1", "note": "[phenformin]", "values": [
      {"measurement": "Ki", "setting": "diamine oxidase", "value": 4, "unit": "mM"}
    ]},
    {"molecule": "NCCCCN", "note": "[putrescine]", "values": [
      {"measurement": "Km", "setting": "porcine diamine oxidase", "value": 350, "unit": "µM"}
    ]},
    {"molecule": "porcine kidney diamine oxidase (Sus scrofa) (protein) ERSPRTPGGKAGVFADLSAQELKAVHSFLWSQKELKLEPSGTLTMAKNSVFLIEMLLPKKQHVLKFLDKGHRRPVREARAVIFFGAQEQPNVTEFAVGPLPTPRYMRDLPPRPGHQVSWASRPISKAEYALLSHKLQEATQPLRQFFRRTTGSSFGDCHEQCLTFTDVAPRGLASGQRRTWFILQRQMPGYFLHPTGLELLVDHGSTNAQDWTVEQVWYNGKFYRSPEELAQKYNDGEVDVVILEDPLAKGKDGESLPEPALFSFYQPRGDFAVTMHGPHVVQPQGPRYSLEGNRVMYGGWSFAFRLRSSSGLQILDVHFGGERIAYEVSVQEAVALYGGHTPAGMQTKYIDVGWGLGSVTHELAPDIDCPETATFLDALHHYDADGPVLYPRALCLFEMPTGVPLRRHFNSNFSGGFNFYAGLKGQVLVLRTTSTVYNYDYIWDFIFYPNGVMEAKMHATGYVHATFYTPEGLRYGTRLHTHLIGNMHTHLVNYRVDLDVAGTTNSFQTLQMELENITNPWSPRHRLVQPTLKQTRYSRERQAAFRFGQPLPKYLLITSPKENPWGHTRSYRLQLHSMADQVLPPGWQEERAVTWARYPLAVTRYRESELSSSSIYNQNDPWDPPVVFEEFLRNNENIEDEDLVAWVTVGFLHIPHSEDIPNTATPGNSVGFLLRPFNFFPEDPALASRDLVVVWPLENGSTYAQRWIPEEDQSCLKPPPFSYNGSYRPV", "values": [
      {"measurement": "Km", "setting": "[3]", "value": "0.33 ± 0.16", "unit": "mM"}
    ]}
  ]
}
